Values of other authors, collected in US11701425B2, “Valerian composition and related methods” (Société des Produits Nestlé S.A., priority 2016, dated 2023).

Conditions: reported value, no test by the applicant

pKa | SMILES
about 5 | CC1=C2[C@H](/C=C(\C)C(=O)O)CC[C@@H](C)[C@H]2CC1 [valerenic acid]
about 5 | CCCC(CCC)C(=O)O [valproic acid]
